# Laboratory results reported in PubChem BioAssay (NCI).
#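 Protocol summary: plate cells (96-well), add compound at 5 concentrations, incubate 48 h, interpolate endpoints linearly. GI50: concentration for 50% inhibition of growth. At the TGI there is no net growth.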
# Columns and labels:
# Experiment in all cases: DTP human tumour cell line panel, 48 h
# [1] = tested on: RPMI-8226 leukemia
# [2] = tested on: K-562 leukemia
# [3] = tested on: SR leukemia
# [4] = tested on: U251 CNS
# [5] = tested on: COLO 205 colon
# [6] = tested on: MALME-3M melanoma
# [7] = tested on: NCI-H23 lung
# [8] = tested on: OVCAR-5 ovarian
# [9] = tested on: SN12C renal
# [10] = tested on: NCI-H226 lung
# [11] = tested on: HT29 colon
# [12] = tested on: NCI-H522 lung
# [13] = tested on: MCF7 breast
# [14] = tested on: OVCAR-3 ovarian
# [15] = tested on: HCT-15 colon
# [16] = tested on: M14 melanoma
# [17] = tested on: 786-0 renal
# [18] = tested on: SK-MEL-28 melanoma
# [19] = tested on: IGROV1 ovarian
# [20] = tested on: SK-OV-3 ovarian
# [21] = tested on: UACC-257 melanoma
# [22] = tested on: CCRF-CEM leukemia
# [23] = tested on: LOX IMVI melanoma
# [24] = tested on: HOP-62 NSCLC
# [25] = tested on: MDA-N
# [26] = tested on: KM12 colon
# [27] = tested on: ACHN renal
# [28] = tested on: SF-295 CNS
# [29] = tested on: OVCAR-4 ovarian
# [30] = tested on: HOP-92 NSCLC
# [31] = tested on: HCT-116 colon
# [32] = tested on: SK-MEL-5 melanoma
# [33] = tested on: UACC-62 melanoma
# [34] = tested on: NCI-H460 lung
# [35] = tested on: SF-539 CNS
# [36] = tested on: SNB-19 CNS
# [37] = tested on: MDA-MB-231 breast
# [38] = tested on: MOLT-4 leukemia
# [39] = tested on: BT-549 breast
# [40] = tested on: OVCAR-8 ovarian
# [41] = tested on: CAKI-1 renal
# [42] = tested on: MDA-MB-435
# [43] = tested on: NCI/ADR-RES ovarian
# [44] = tested on: DU-145 prostate
# [45] = tested on: T-47D breast
# [46] = tested on: SNB-75 CNS
# [47] = tested on: TK-10 renal
# [48] = tested on: A498 renal
# [49] = tested on: EKVX NSCLC
# [50] = tested on: PC-3 prostate
# [51] = tested on: A549 NSCLC
# [52] = tested on: SW-620 colon
# [53] = tested on: SK-MEL-2 melanoma
# [54] = tested on: HL-60(TB) leukemia
# [55] = tested on: RXF 393 renal
# [56] = tested on: HCC-2998 colon
# [57] = tested on: UO-31 renal
# [58] = tested on: HS 578T breast
# [59] = tested on: SF-268 CNS
smiles,measurement,setting,value
CCOc1ccc(-n2nnc3c(N)nc(N)nc32)cc1,TGI,[1],> 100 µM
same,TGI,[2],> 100 µM
same,TGI,[3],> 100 µM
same,TGI,[4],> 100 µM
same,TGI,[5],> 100 µM
same,TGI,[6],> 100 µM
same,TGI,[7],> 100 µM
same,TGI,[8],> 100 µM
same,TGI,[9],> 100 µM
same,TGI,[10],> 100 µM
same,TGI,[11],> 100 µM
same,TGI,[12],> 100 µM
same,TGI,[13],> 100 µM
same,TGI,[14],> 100 µM
same,TGI,[15],> 100 µM
same,TGI,[16],> 100 µM
same,TGI,[17],> 100 µM
same,TGI,[18],> 100 µM
same,TGI,[19],> 100 µM
same,TGI,[20],> 100 µM
same,TGI,[21],> 100 µM
same,TGI,[22],> 100 µM
same,TGI,[23],> 100 µM
same,TGI,[24],> 100 µM
same,TGI,[25],> 100 µM
same,TGI,[26],> 100 µM
same,TGI,[27],> 100 µM
same,TGI,[28],> 100 µM
same,TGI,[29],> 100 µM
same,TGI,[30],> 100 µM
same,TGI,[31],> 100 µM
same,TGI,[32],> 100 µM
same,TGI,[33],> 100 µM
same,TGI,[34],> 100 µM
same,TGI,[35],> 100 µM
same,TGI,[36],> 100 µM
same,TGI,[37],> 100 µM
same,TGI,[38],> 100 µM
same,TGI,[39],> 100 µM
same,TGI,[40],> 100 µM
same,TGI,[41],> 100 µM
same,TGI,[42],> 100 µM
same,TGI,[43],> 100 µM
same,TGI,[44],> 100 µM
same,TGI,[45],> 100 µM
same,TGI,[46],> 100 µM
same,TGI,[47],> 100 µM
same,TGI,[48],> 100 µM
same,TGI,[49],> 100 µM
same,TGI,[50],> 100 µM
same,TGI,[51],> 100 µM
same,TGI,[52],> 100 µM
same,TGI,[53],> 100 µM
CCC1(O)C(=O)OCc2c1cc1n(c2=O)Cc2cc3cc(N)ccc3nc2-1 (stereo unspecified),TGI,[1],4.94 µM
same,TGI,[2],31.3 µM
same,TGI,[3],0.0122 µM
same,TGI,[4],0.129 µM
same,TGI,[5],7.25 µM
same,TGI,[6],1.33 µM
same,TGI,[7],0.0817 µM
same,TGI,[8],2.94 µM
same,TGI,[54],0.0145 µM
same,TGI,[9],0.697 µM
same,TGI,[12],0.27 µM
same,TGI,[13],> 54.3 µM
same,TGI,[14],0.469 µM
same,TGI,[15],3.55 µM
same,GI50,[55],0.126 µM
same,TGI,[55],1.12 µM
same,TGI,[16],0.153 µM
same,TGI,[17],0.0469 µM
same,GI50,[18],0.493 µM
same,TGI,[18],41.8 µM
same,TGI,[19],> 55.2 µM
same,TGI,[20],0.207 µM
same,TGI,[21],1.89 µM
same,TGI,[22],< 0.01 µM
same,TGI,[23],0.059 µM
same,TGI,[24],0.357 µM
same,TGI,[25],0.285 µM
same,TGI,[27],0.0142 µM
same,TGI,[28],0.36 µM
same,TGI,[29],> 22 µM
same,TGI,[56],1.37 µM
same,TGI,[32],0.0761 µM
same,TGI,[33],0.251 µM
same,TGI,[34],0.189 µM
same,TGI,[35],< 0.01 µM
same,TGI,[36],3.36 µM
same,TGI,[37],> 64.8 µM
same,TGI,[57],0.0864 µM
same,TGI,[38],< 0.01 µM
same,TGI,[39],0.0931 µM
same,TGI,[40],4.45 µM
same,TGI,[41],0.343 µM
same,TGI,[43],0.266 µM
same,TGI,[44],< 0.01 µM
same,TGI,[45],> 100 µM
same,TGI,[46],0.0375 µM
same,TGI,[47],> 28.2 µM
same,TGI,[48],1.06 µM
same,TGI,[49],> 28.9 µM
same,TGI,[50],> 100 µM
same,TGI,[51],2.41 µM
same,TGI,[58],> 95.2 µM
same,TGI,[52],> 100 µM
same,TGI,[53],0.826 µM
COc1ccc(-n2cnc3c(NC(CCSC)C(=O)O)ncnc32)cc1 (stereo unspecified),TGI,[1],> 100 µM
same,TGI,[2],> 100 µM
same,TGI,[3],> 100 µM
same,TGI,[4],> 100 µM
same,TGI,[5],> 100 µM
same,TGI,[7],> 100 µM
same,TGI,[8],> 100 µM
same,TGI,[9],> 100 µM
same,TGI,[10],> 100 µM
same,TGI,[11],> 100 µM
same,TGI,[12],> 100 µM
same,TGI,[13],> 100 µM
same,TGI,[14],> 100 µM
same,TGI,[15],> 100 µM
same,TGI,[16],> 100 µM
same,TGI,[17],> 100 µM
same,TGI,[18],> 100 µM
same,TGI,[19],> 100 µM
same,TGI,[20],> 100 µM
same,TGI,[21],> 100 µM
same,TGI,[22],> 100 µM
same,TGI,[23],> 100 µM
same,TGI,[24],> 100 µM
same,TGI,[25],> 100 µM
same,TGI,[26],> 100 µM
same,TGI,[27],> 100 µM
same,TGI,[28],> 100 µM
same,TGI,[29],> 100 µM
same,TGI,[30],> 100 µM
same,TGI,[56],> 100 µM
same,TGI,[31],> 100 µM
same,TGI,[32],> 100 µM
same,TGI,[33],> 100 µM
same,TGI,[34],> 100 µM
same,TGI,[36],> 100 µM
same,TGI,[37],> 100 µM
same,TGI,[57],> 100 µM
same,TGI,[38],> 100 µM
same,TGI,[39],> 100 µM
same,TGI,[40],> 100 µM
same,TGI,[41],> 100 µM
same,TGI,[42],> 100 µM
same,TGI,[43],> 100 µM
same,TGI,[44],> 100 µM
same,TGI,[45],> 100 µM
same,TGI,[46],> 100 µM
same,TGI,[47],> 100 µM
same,TGI,[48],> 100 µM
same,TGI,[59],> 100 µM
same,TGI,[49],> 100 µM
same,TGI,[50],> 100 µM
same,TGI,[51],> 100 µM
same,TGI,[58],> 100 µM
same,TGI,[52],> 100 µM
same,TGI,[53],> 100 µM
O[C@H]1[C@H](O)[C@@H](O)[C@@]2(O)C[C@@H](O)[C@@H]1N2,TGI,[2],> 100 µM
same,TGI,[3],> 100 µM
same,TGI,[4],> 100 µM
same,TGI,[5],> 100 µM
same,TGI,[6],> 100 µM
same,TGI,[7],> 100 µM
same,TGI,[54],> 100 µM
same,TGI,[9],> 100 µM
same,TGI,[10],> 100 µM
same,TGI,[11],> 100 µM
same,TGI,[12],> 100 µM
same,TGI,[13],> 100 µM
same,TGI,[14],> 100 µM
same,TGI,[15],> 100 µM
same,TGI,[55],> 100 µM
same,TGI,[16],> 100 µM
same,TGI,[17],> 100 µM
same,TGI,[18],> 100 µM
same,TGI,[19],> 100 µM
same,TGI,[20],> 100 µM
same,TGI,[21],> 100 µM
same,TGI,[22],> 100 µM
same,TGI,[23],> 100 µM
same,TGI,[24],> 100 µM
same,TGI,[25],> 100 µM
same,TGI,[26],> 100 µM
same,TGI,[27],> 100 µM
same,TGI,[28],> 100 µM
same,TGI,[29],> 100 µM
same,TGI,[30],> 100 µM
same,TGI,[56],> 100 µM
same,TGI,[31],> 100 µM
same,TGI,[32],> 100 µM
same,TGI,[33],> 100 µM
same,TGI,[34],> 100 µM
same,TGI,[35],> 100 µM
same,TGI,[36],> 100 µM
same,TGI,[37],> 100 µM
same,TGI,[57],> 100 µM
same,TGI,[38],> 100 µM
same,TGI,[40],> 100 µM
same,TGI,[42],> 100 µM
same,TGI,[43],> 100 µM
same,TGI,[44],> 100 µM
same,TGI,[45],> 100 µM
same,TGI,[46],> 100 µM
same,TGI,[47],> 100 µM
same,TGI,[48],> 100 µM
same,TGI,[59],> 100 µM
same,TGI,[49],> 100 µM
same,TGI,[50],> 100 µM
same,TGI,[51],> 100 µM
same,TGI,[58],> 100 µM
same,TGI,[52],> 100 µM
